Laboratory results taken from US11427606B2, “Azithromycin derivatives containing a phosphonium ion as anticancer agents” (Rising Tide Foundation, priority 2017, dated 2022).

Tested on: MDA-231 cancer cells
Assay: Inhibition of proliferation assay: cell confluence (IncuCyte imaging)
Type: cell-based
Conditions: MDA-231 cells, IncuCyte images every 3 h over 4-5 d, relative confluence normalised to time zero
Description: Inhibition of Proliferation Assay
The confluence value is a surrogate for cell proliferation and growth. The value is expressed as a percent confluence, which represents the fraction of culture dish-surface that is occupied by cells. As the number of cells in the dish increases over time due to proliferation, so will their coverage of that surface increase. Expansion of the cell population on the cell culture-dish surface and confluence have mostly a linear relationship until the cells on the plate surface begin to reach saturation or maximum density.
Confluence is determined based on image analysis. Image based software can identify objects in the image field base on changes to pixel density in a grey scale image. The software can then assign a mask to those pixels within the object. Objects can be ‘gated’ out based on size and shape. To determine cell confluence, images of cells are first masked as objects. The surface area of the image that is masked is measured and compared to the total surface area of the culture dish surface to obtain a percent confluence.
MDA-231 cancer cells were obtained from ATCC. Cells were cultured in Dulbecco's Modified Eagle Medium (DMEM) supplemented with 10% Fetal Bovine Serum (FBS), 2 mM Glutamax, 1 mM Non Essential Amino Acid (NEAA) solution and 1 mM sodium pyruvate. […] Final DMSO concentrations were […]. Images were acquired with an IncuCyte Live Cell Imaging microscopy (Essen Bioscience) at every 3 h under cell culture conditions with 10× objective over 4-5 d. Cell confluence was calculated from one field of view per well using the IncuCyte in-built algorithm. Relative confluence values were obtained by normalising each value to the time zero value in each sample.

Row | Compound | % Confluence (compound at 10 uM) [%] | % Confluence (compound at 100 uM) [%]
1 | CC[C@H]1OC(=O)[C@H](C)[C@@H](O[C@H]2C[C@@](C)(OC)[C@@H](O)[C@H](C)O2)[C@H](C)[C@@H](O[C@@H]2O[C@H](C)C[C@H](N(C)C)[C@H]2O)[C@](C)(O)C[C@@H](C)CN(C)[C@H](C)[C@@H](O)[C@]1(C)O [Azithromycin] | 99.1 | 17
2 | CC[C@H]1OC(=O)[C@H](C)[C@@H](O[C@H]2C[C@@](C)(OC)[C@@H](O)[C@H](C)O2)[C@H](C)[C@@H](O[C@@H]2O[C@H](C)C[C@H](N(C)C)[C@H]2O)[C@](C)(O)C[C@@H](C)CN(C(=O)CCCCC[P+](c2cc(C)cc(C)c2)(c2cc(C)cc(C)c2)c2cc(C)cc(C)c2)[C@H](C)[C@@H](O)[C@]1(C)O [Example 1, {6-[(2R,3S,4R,5R,8R,10R,11R,12S,13S,14R)-11-{[(2S,3R,4S,6R)-4-(dimethylamino)-3-hydroxy-6-methyloxan-2-yl]oxy}-2-ethyl-3,4,10-trihydroxy-13-{[(2R,4R,5S,6S)-5-hydroxy-4-methoxy-4,6-dimethyloxan-2-yl]oxy}-3,5,8,10,12,14-hexamethyl-15-oxo-1-oxa-6-azacyclopentadecan-6-yl]-6-oxohexyl}tris(3,5-dimethylphenyl)phosphoniumhexafluorophosphate(V)] | 4.8 | –
3 | CC[C@H]1OC(=O)[C@H](C)[C@@H](O[C@H]2C[C@@](C)(OC)[C@@H](O)[C@H](C)O2)[C@H](C)[C@@H](O[C@@H]2O[C@H](C)C[C@H](N(C)C)[C@H]2O)[C@](C)(O)C[C@@H](C)CN(C(=O)CCCCC[P+](c2ccccc2)(c2ccccc2)c2cccc(S(=O)(=O)O)c2)[C@H](C)[C@@H](O)[C@]1(C)O.F[P-](F)(F)(F)(F)F [Example 2, {6-[(2R,3S,4R,5R,8R,10R,11R,12S,13S,14R)-11-{[(2S,3R,4S,6R)-4-(dimethylamino)-3-hydroxy-6-methyloxan-2-yl]oxy}-2-ethyl-3,4,10-trihydroxy-13-{[(2R,4R,5S,6S)-5-hydroxy-4-methoxy-4,6-dimethyloxan-2-yl]oxy}-3,5,8,10,12,14-hexamethyl-15-oxo-1-oxa-6-azacyclopentadecan-6-yl]-6-oxohexyl}diphenyl(3-sulfophenyl)phosphoniumhexafluorophosphate(V)] | 131.8 | –
4 | CC[C@H]1OC(=O)[C@H](C)[C@@H](O[C@H]2C[C@@](C)(OC)[C@@H](O)[C@H](C)O2)[C@H](C)[C@@H](O[C@@H]2O[C@H](C)C[C@H](N(C)C)[C@H]2O)[C@](C)(O)C[C@@H](C)CN(C(=O)CCCCCCC[P+](c2ccc(F)cc2)(c2ccc(F)cc2)c2ccc(F)cc2)[C@H](C)[C@@H](O)[C@]1(C)O [Example 3, {8-[(2R,3S,4R,5R,8R,10R,11R,12S,13S,14R)-11-{[(2S,3R,4S,6R)-4-(dimethylamino)-3-hydroxy-6-methyloxan-2-yl]oxy}-2-ethyl-3,4,10-trihydroxy-13-{[(2R,4R,5S,6S)-5-hydroxy-4-methoxy-4,6-dimethyloxan-2-yl]oxy}-3,5,8,10,12,14-hexamethyl-15-oxo-1-oxa-6-azacyclopentadecan-6-yl]-8-oxooctyl}tris(4-fluorophenyl)phosphonium hexafluorophosphate(V)] | 97.7 | –
5 | CC[C@H]1OC(=O)[C@H](C)[C@@H](O[C@H]2C[C@@](C)(OC)[C@@H](O)[C@H](C)O2)[C@H](C)[C@@H](O[C@@H]2O[C@H](C)C[C@H](N(C)C)[C@H]2O)[C@](C)(O)C[C@@H](C)CN(C(=O)CCCCCCC[P+](c2ccc(OC)cc2)(c2ccc(OC)cc2)c2ccc(OC)cc2)[C@H](C)[C@@H](O)[C@]1(C)O.F[P-](F)(F)(F)(F)F [Example 5, {8-[(2R,3S,4R,5R,8R,10R,11R,12S,13S,14R)-11-{[(2S,3R,4S,6R)-4-(dimethylamino)-3-hydroxy-6-methyloxan-2-yl]oxy}-2-ethyl-3,4,10-trihydroxy-13-{[(2R,4R,5S,6S)-5-hydroxy-4-methoxy-4,6-dimethyloxan-2-yl]oxy}-3,5,8,10,12,14-hexamethyl-15-oxo-1-oxa-6-azacyclopentadecan-6-yl]-8-oxooctyl}tris(4-methoxyphenyl)phosphoniumhexafluorophosphate(V)] | 7.8 | –
